Laboratory results: ChEMBL document CHEMBL1133848, “Novel synthesis and RNA-binding properties of aminoglycoside dimers conjugated via a naphthalene diimide-based intercalator” (Bioorg Med Chem Lett, 2001)

Test: Dissociation constant with dimeric 16S rRNA RNA construct B

Row | Kd | Compound
1 | 1110 nM | NC[C@H]1O[C@H](O[C@H]2[C@H](O)[C@@H](O[C@H]3O[C@H](CSCCOCCSCC(O)CN4C(=O)c5ccc6c7c(ccc(c57)C4=O)C(=O)N(CC(O)CSCCOCCSC[C@H]4O[C@H](O[C@@H]5[C@@H](O)[C@H](O[C@H]7O[C@H](CN)[C@@H](O)C[C@H]7N)[C@@H](N)C[C@H]5N)[C@H](O)[C@@H](N)[C@@H]4O)C6=O)[C@@H](O)[C@H](N)[C@H]3O)[C@H](N)C[C@@H]2N)[C@H](N)C[C@@H]1O (some centres undefined)
2 | 280 nM | CN(C)C1=CC2Oc3cc(N(C)C)ccc3C(c3ccc(C(=O)NC[C@@H]4O[C@H](O[C@H]5[C@@H](O)[C@H](O[C@@H]6[C@H](O)[C@H](N)C[C@@H](N)[C@H]6O[C@H]6O[C@@H](CO)[C@@H](O)[C@H](O)[C@@H]6N)O[C@@H]5CO)[C@H](N)[C@H](O)[C@@H]4O)cc3C(=O)O)=C2C=C1 (some centres undefined)
3 | 290 nM | NCC1O[C@H](O[C@H]2[C@@H](O)[C@H](O[C@H]3[C@H](O)[C@@H](N)C[C@@H](N)[C@@H]3O[C@H]3O[C@H](CN)[C@@H](O)[C@H](O)[C@H]3N)O[C@@H]2CSCCOCCSSCCOCCSC[C@H]2O[C@H](O[C@@H]3[C@@H](O)[C@H](O[C@H]4O[C@H](CN)[C@@H](O)C[C@H]4N)[C@@H](N)C[C@H]3N)[C@H](O)[C@@H](N)[C@@H]2O)[C@H](N)[C@@H](O)[C@@H]1O (some centres undefined)
4 | 150 nM | NC[C@@H]1O[C@H](O[C@H]2[C@@H](O)[C@H](O[C@H]3[C@H](O)[C@@H](N)C[C@@H](N)[C@@H]3O[C@H]3O[C@H](CN)[C@@H](O)[C@H](O)[C@H]3N)O[C@@H]2CSCCOCCSCC(O)CN2C(=O)c3ccc4c5c(ccc(c35)C2=O)C(=O)N(CC(O)CSCCOCCSC[C@H]2O[C@H](O[C@@H]3[C@@H](O)[C@H](O[C@H]5O[C@H](CN)[C@@H](O)C[C@H]5N)[C@@H](N)C[C@H]3N)[C@H](O)[C@@H](N)[C@@H]2O)C4=O)[C@H](N)[C@@H](O)[C@@H]1O (some centres undefined)
5 | 10 nM | NC[C@@H]1O[C@H](O[C@@H]2[C@H](O[C@@H]3OC(CSCCOCCSCC(O)CN4C(=O)c5ccc6c7c(ccc(c57)C4=O)C(=O)N(CC(O)CSCCOCCSC[C@H]4O[C@@H](O[C@H]5[C@H](O)[C@@H](N)C[C@@H](N)[C@@H]5O[C@H]5O[C@H](CN)[C@@H](O)[C@H](O)[C@H]5N)[C@H](O)[C@@H]4O[C@H]4O[C@@H](CN)[C@@H](O)[C@H](O)[C@H]4N)C6=O)[C@@H](O[C@@H]4O[C@H](CN)[C@H](O)C(O)[C@H]4N)[C@H]3O)[C@@H](O)[C@@H](N)C[C@@H]2N)[C@@H](N)[C@@H](O)[C@@H]1O (some centres undefined)
6 | 20 nM | NCC1O[C@H](O[C@H]2[C@@H](O)[C@H](O[C@H]3[C@H](O)[C@@H](N)C[C@@H](N)[C@@H]3O[C@H]3O[C@H](CN)[C@@H](O)[C@H](O)[C@H]3N)O[C@@H]2CSCCOCCSSCCOCCSC[C@H]2O[C@@H](O[C@H]3[C@H](O)[C@@H](N)C[C@@H](N)[C@@H]3O[C@H]3O[C@H](CN)[C@@H](O)[C@H](O)[C@H]3N)[C@H](O)[C@@H]2O[C@@H]2OC(CN)[C@H](O)[C@@H](O)[C@@H]2N)[C@H](N)[C@@H](O)[C@@H]1O (some centres undefined)
7 | 350 nM | NC[C@@H]1O[C@H](O[C@H]2[C@@H](O)[C@H](O[C@@H]3[C@@H](O)[C@H](N)C[C@H](N)[C@H]3O[C@H]3O[C@H](CN)[C@@H](O)[C@H](O)[C@H]3N)O[C@@H]2CO)[C@H](N)[C@@H](O)[C@@H]1O [FRAMYCETIN]
8 | 1680 nM | NC[C@H]1O[C@H](O[C@H]2[C@H](O)[C@@H](O[C@H]3O[C@H](CO)[C@@H](O)[C@H](N)[C@H]3O)[C@H](N)C[C@@H]2N)[C@H](N)C[C@@H]1O [TOBRAMYCIN]
9 | 1810 nM | NC[C@H]1O[C@H](O[C@H]2[C@H](O)[C@@H](O[C@H]3O[C@H](CSCCOCCSSCCOCCSC[C@H]4O[C@H](O[C@@H]5[C@@H](O)[C@H](O[C@H]6O[C@H](CN)[C@@H](O)C[C@H]6N)[C@@H](N)C[C@H]5N)[C@H](O)[C@@H](N)[C@@H]4O)[C@@H](O)[C@H](N)[C@H]3O)[C@H](N)C[C@@H]2N)[C@H](N)C[C@@H]1O [Tobramycin-Tobramycin]
